From the supplement of paper PMC11208160

Assay: recombinant UMI read abundance after kanamycin selection (control-corrected) (log10(CPM+1)); higher = more efficient recombination; extreme values may be limits of the assay; sequences stand for … in AGTGCAGAGAAAATCGGCCAGTTTTCTCTGCCTGCAGTCCGCATGCCGTGGGACCCCTTGGGTTCTAACCTGTTGCCTAGATTTATGCAGCGGACTGCCTTTCTCCCAAAGTGATAAACCGG…AGGTTGGTTTCACT; site = the 11-nt donor
How it was run: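 Counts of recombinant UMIs were reported as log10(CPM+1). Before that, they were converted to CPM, averaged over replicates and scaled using control-derived factors. They came from PCR across the donor–target junction after Escherichia coli carrying the pair library and target plasmid was plated on IPTG (0.07 mM) plus kanamycin, or unselected, in two replicates each.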
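Further: IS621 bridge recombinase in Escherichia coli cells against a fixed T5 target plasmid.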

Sequence | recombinant UMI read abundance (log10)
CGGCGTACATGGACCGGTTTTCCCGGTAATCCGTATTTGCT (site CGACGTACTAG) | 1.63
CGGCGTACATGGACCGGTTTTCCCGGTAATCCGTATTTGCT (site CGCCGTACTAG) | 0.201
CGGCGTACATGGACCGGTTTTCCCGGTAATCCGTATTTGCT (site CGGCGTACTAG) | 2.38
CGGCGTACATGGACCGGTTTTCCCGGTAATCCGTATTTGCT (site CGTCGTACTAG) | 0
CGGCGTACATGGACCGGTTTTCCCGGTAATCCGTATTTGTC (site CGGCGTACTGA) | 2.31
CGGCGTGCATGGACCGGTTTTCCCGGTAATCCGTATTTGAC (site CGGCGTGCTGT) | 2.82
CGGCTTCCATGGACCGGTTTTCCCGGTAATCCGTATTTGGA (site CGGCTTCCTTC) | 0.00516
CGGCTTGCATGGACCGGTTTTCCCGGTAATCCGTATTTGCC (site CGGCTTGCTGG) | 0.904
CGGGAAACATGGACCGGTTTTCCCGGTAATCCGTATTTGCA (site CAGGAAACTTG) | 2
CGGGAAACATGGACCGGTTTTCCCGGTAATCCGTATTTGCA (site CCGGAAACTTG) | 1.45
CGGGAAACATGGACCGGTTTTCCCGGTAATCCGTATTTGCA (site CGGGAAACTTG) | 0.914
CGGGAAACATGGACCGGTTTTCCCGGTAATCCGTATTTGCA (site CTGGAAACTTG) | 1.04
CGGGAACCATGGACCGGTTTTCCCGGTAATCCGTATTTGCT (site CGGGAACCTAA) | 0
CGGGAACCATGGACCGGTTTTCCCGGTAATCCGTATTTGCT (site CGGGAACCTAC) | 0
CGGGAACCATGGACCGGTTTTCCCGGTAATCCGTATTTGCT (site CGGGAACCTAG) | 0
CGGGAACCATGGACCGGTTTTCCCGGTAATCCGTATTTGCT (site CGGGAACCTAT) | 0
CGGGAGCCATGGACCGGTTTTCCCGGTAATCCGTATTTGAT (site CGGGAACCTAT) | 0
CGGGAGCCATGGACCGGTTTTCCCGGTAATCCGTATTTGAT (site CGGGACCCTAT) | 0.00515
CGGGAGCCATGGACCGGTTTTCCCGGTAATCCGTATTTGAT (site CGGGAGCCTAT) | 0.266
CGGGAGCCATGGACCGGTTTTCCCGGTAATCCGTATTTGAT (site CGGGATCCTAT) | 0.0423
CGGGAGTCATGGACCGGTTTTCCCGGTAATCCGTATTTGCT (site CGGGAGTCTAG) | 2.6
CGGGAGTCATGGACCGGTTTTCCCGGTAATCCGTATTTGCT (site CGGGAGTCTCG) | 2.06
CGGGAGTCATGGACCGGTTTTCCCGGTAATCCGTATTTGCT (site CGGGAGTCTGG) | 2.26
CGGGAGTCATGGACCGGTTTTCCCGGTAATCCGTATTTGCT (site CGGGAGTCTTG) | 1.47
CGGGAGTCATGGACCGGTTTTCCCGGTAATCCGTATTTGTC (site CGGGAGTCTGA) | 3.19

Sequence | recombinant UMI read abundance (log10)
CGGGAGTCATGGACCGGTTTTCCCGGTAATCCGTATTTGTC (site CGGGAGTCTGC) | 1.37
CGGGAGTCATGGACCGGTTTTCCCGGTAATCCGTATTTGTC (site CGGGAGTCTGG) | 2.03
CGGGAGTCATGGACCGGTTTTCCCGGTAATCCGTATTTGTC (site CGGGAGTCTGT) | 1.9
CGGGCAGCATGGACCGGTTTTCCCGGTAATCCGTATTTGTC (site CGGGCAGCTGA) | 1.93
CGGGCCTCATGGACCGGTTTTCCCGGTAATCCGTATTTGTT (site CGGGCCTCTAA) | 2.54
CGGGGGTCATGGACCGGTTTTCCCGGTAATCCGTATTTGCC (site CGGGAGTCTGG) | 0.865
CGGGGGTCATGGACCGGTTTTCCCGGTAATCCGTATTTGCC (site CGGGCGTCTGG) | 1.7
CGGGGGTCATGGACCGGTTTTCCCGGTAATCCGTATTTGCC (site CGGGGGTCTGG) | 1.86
CGGGGGTCATGGACCGGTTTTCCCGGTAATCCGTATTTGCC (site CGGGTGTCTGG) | 0.6
CGGGTACCATGGACCGGTTTTCCCGGTAATCCGTATTTGAT (site CGGGAACCTAT) | 0
CGGGTACCATGGACCGGTTTTCCCGGTAATCCGTATTTGAT (site CGGGCACCTAT) | 0
CGGGTACCATGGACCGGTTTTCCCGGTAATCCGTATTTGAT (site CGGGGACCTAT) | 0
CGGGTACCATGGACCGGTTTTCCCGGTAATCCGTATTTGAT (site CGGGTACCTAT) | 0.00441
CGGGTGTCATGGACCGGTTTTCCCGGTAATCCGTATTTGTT (site CGGGTGTCTAA) | 3.07
CGGGTTGCATGGACCGGTTTTCCCGGTAATCCGTATTTGAG (site CGGGTTGCTCT) | 1.79
CGGTACTCATGGACCGGTTTTCCCGGTAATCCGTATTTGGC (site CGGTACTCTGC) | 3.19
CGGTAGCCATGGACCGGTTTTCCCGGTAATCCGTATTTGTT (site CGGAATCCTAA) | 0.00596
CGGTAGCCATGGACCGGTTTTCCCGGTAATCCGTATTTGTT (site CGGTAGCCTAA) | 0.237
CGGTCATCATGGACCGGTTTTCCCGGTAATCCGTATTTGCT (site CGATCATCTAG) | 1.07
CGGTCATCATGGACCGGTTTTCCCGGTAATCCGTATTTGCT (site CGCTCATCTAG) | 0
CGGTCATCATGGACCGGTTTTCCCGGTAATCCGTATTTGCT (site CGGACATCTAG) | 0
CGGTCATCATGGACCGGTTTTCCCGGTAATCCGTATTTGCT (site CGGCCATCTAG) | 2.29
CGGTCATCATGGACCGGTTTTCCCGGTAATCCGTATTTGCT (site CGGGCATCTAG) | 0
CGGTCATCATGGACCGGTTTTCCCGGTAATCCGTATTTGCT (site CGGTCATCTAG) | 1.7
CGGTCATCATGGACCGGTTTTCCCGGTAATCCGTATTTGCT (site CGTTCATCTAG) | 0.224

Sequence | recombinant UMI read abundance (log10)
CGGTCCGCATGGACCGGTTTTCCCGGTAATCCGTATTTGCG (site CGGTCCGCTCG) | 0.155
CGGTCTTCATGGACCGGTTTTCCCGGTAATCCGTATTTGCT (site CGATCATCTAG) | 0
CGGTCTTCATGGACCGGTTTTCCCGGTAATCCGTATTTGCT (site CGGTCTTCTAG) | 1.49
CGGTGAGCATGGACCGGTTTTCCCGGTAATCCGTATTTGGA (site CGGTGAGCTTC) | 1.56
CGGTGGACATGGACCGGTTTTCCCGGTAATCCGTATTTGGG (site CGGTGGACTCC) | 0.024
CGTAACCCATGGACCGGTTTTCCCGGTAATCCGTATTTGGC (site CGTAACCCTGC) | 0.629
CGTAACTCATGGACCGGTTTTCCCGGTAATCCGTATTTGTA (site CGTAACTCTTA) | 2.2
CGTAAGACATGGACCGGTTTTCCCGGTAATCCGTATTTGCA (site AGGAAGACTTG) | 0
CGTAAGACATGGACCGGTTTTCCCGGTAATCCGTATTTGCA (site CGTAAGACTTG) | 2.68
CGTAATACATGGACCGGTTTTCCCGGTAATCCGTATTTGGC (site CATAATACTGC) | 0
CGTAATACATGGACCGGTTTTCCCGGTAATCCGTATTTGGC (site CCTAATACTGC) | 0
CGTAATACATGGACCGGTTTTCCCGGTAATCCGTATTTGGC (site CGTAATACTGC) | 1.22
CGTAATACATGGACCGGTTTTCCCGGTAATCCGTATTTGGC (site CTTAATACTGC) | 0
CGTAATACATGGACCGGTTTTCCCGGTAATCCGTATTTGTT (site CGGAATCCTAA) | 0
CGTAATACATGGACCGGTTTTCCCGGTAATCCGTATTTGTT (site CGTAATACTAA) | 0.809
CGTATAACATGGACCGGTTTTCCCGGTAATCCGTATTTGAT (site CGTATAACTAT) | 0.94
CGTCATGCATGGACCGGTTTTCCCGGTAATCCGTATTTGAC (site CGTCATGCTGT) | 1.2
CGTCTTTCATGGACCGGTTTTCCCGGTAATCCGTATTTGCA (site CGTCTTTCTTG) | 0
CGTGAAACATGGACCGGTTTTCCCGGTAATCCGTATTTGTT (site CGTGAAACTAA) | 1.61
CGTGAAACATGGACCGGTTTTCCCGGTAATCCGTATTTGTT (site CGTGCAACTAA) | 0
CGTGAAACATGGACCGGTTTTCCCGGTAATCCGTATTTGTT (site CGTGGAACTAA) | 0
CGTGAAACATGGACCGGTTTTCCCGGTAATCCGTATTTGTT (site CGTGTAACTAA) | 0.0209
CGTGAGGCATGGACCGGTTTTCCCGGTAATCCGTATTTGCC (site CGTGAGGCTGG) | 0.525
CGTGCCCCATGGACCGGTTTTCCCGGTAATCCGTATTTGGC (site CGTGCCCCTGC) | 0
CGTGGAACATGGACCGGTTTTCCCGGTAATCCGTATTTGCG (site CGTGGAACTCG) | 2.05
